Measured values taken from the NIST ThermoML archive (doi:10.1016/j.jct.2006.09.003).
Numbers after ± are expanded uncertainties.

Conditions: Fluid (supercritical or subcritical phases), Bellows volumetry

Compound: CCCC [butane]
- mass density (280 K, 1000 kPa): 595.47 ± 1.1 kg/m3
- mass density (280 K, 2000 kPa): 596.86 ± 1.1 kg/m3
- mass density (280 K, 3000 kPa): 598.22 ± 1.1 kg/m3
- mass density (280 K, 5000 kPa): 600.88 ± 1.1 kg/m3
- mass density (280 K, 10000 kPa): 607.05 ± 1.1 kg/m3
- mass density (280 K, 20000 kPa): 617.68 ± 1.1 kg/m3
- mass density (280 K, 30000 kPa): 626.91 ± 1.1 kg/m3
- mass density (280 K, 40000 kPa): 635.29 ± 1.1 kg/m3
- mass density (280 K, 50000 kPa): 642.77 ± 1.2 kg/m3
- mass density (280 K, 60000 kPa): 649.44 ± 1.2 kg/m3
- mass density (280 K, 70000 kPa): 655.79 ± 1.2 kg/m3
- mass density (280 K, 80000 kPa): 661.73 ± 1.2 kg/m3
- mass density (280 K, 90000 kPa): 667.23 ± 1.2 kg/m3
- mass density (280 K, 100000 kPa): 672.51 ± 1.2 kg/m3
- mass density (280 K, 120000 kPa): 682.08 ± 1.8 kg/m3
- mass density (280 K, 140000 kPa): 690.89 ± 1.8 kg/m3
- mass density (280 K, 160000 kPa): 698.82 ± 1.8 kg/m3
- mass density (280 K, 180000 kPa): 706.38 ± 1.9 kg/m3
- mass density (280 K, 200000 kPa): 713.34 ± 1.9 kg/m3
- mass density (300 K, 1000 kPa): 572.94 ± 1 kg/m3
- mass density (300 K, 2000 kPa): 574.58 ± 1 kg/m3
- mass density (300 K, 3000 kPa): 576.27 ± 1 kg/m3
- mass density (300 K, 5000 kPa): 579.56 ± 1 kg/m3
- mass density (300 K, 10000 kPa): 586.77 ± 1.1 kg/m3
- mass density (300 K, 20000 kPa): 599.44 ± 1.1 kg/m3
- mass density (300 K, 30000 kPa): 610.13 ± 1.1 kg/m3
- mass density (300 K, 40000 kPa): 619.89 ± 1.1 kg/m3
- mass density (300 K, 50000 kPa): 628.14 ± 1.1 kg/m3
- mass density (300 K, 60000 kPa): 635.82 ± 1.1 kg/m3
- mass density (300 K, 70000 kPa): 642.36 ± 1.2 kg/m3
- mass density (300 K, 80000 kPa): 648.71 ± 1.2 kg/m3
- mass density (300 K, 90000 kPa): 654.83 ± 1.2 kg/m3
- mass density (300 K, 100000 kPa): 660.41 ± 1.2 kg/m3
- mass density (300 K, 120000 kPa): 670.68 ± 1.2 kg/m3
- mass density (300 K, 140000 kPa): 680.05 ± 1.2 kg/m3
- mass density (300 K, 160000 kPa): 688.48 ± 1.3 kg/m3
- mass density (300 K, 180000 kPa): 696.25 ± 1.3 kg/m3
- mass density (300 K, 200000 kPa): 703.51 ± 1.3 kg/m3
- mass density (320 K, 1000 kPa): 548.24 ± 0.99 kg/m3
- mass density (320 K, 2000 kPa): 550.53 ± 0.99 kg/m3
- mass density (320 K, 3000 kPa): 552.73 ± 0.99 kg/m3
- mass density (320 K, 5000 kPa): 556.84 ± 1 kg/m3
- mass density (320 K, 10000 kPa): 566.09 ± 1 kg/m3
- mass density (320 K, 20000 kPa): 580.87 ± 1.1 kg/m3
- mass density (320 K, 30000 kPa): 593.19 ± 1.1 kg/m3
- mass density (320 K, 40000 kPa): 603.68 ± 1.1 kg/m3
- mass density (320 K, 50000 kPa): 612.97 ± 1.1 kg/m3
- mass density (320 K, 60000 kPa): 621.23 ± 1.1 kg/m3
- mass density (320 K, 70000 kPa): 628.85 ± 1.1 kg/m3
- mass density (320 K, 80000 kPa): 635.85 ± 1.1 kg/m3
- mass density (320 K, 90000 kPa): 642.47 ± 1.2 kg/m3
- mass density (320 K, 100000 kPa): 648.38 ± 1.2 kg/m3
- mass density (320 K, 120000 kPa): 659.38 ± 1.2 kg/m3
- mass density (320 K, 140000 kPa): 669.21 ± 1.2 kg/m3
- mass density (320 K, 160000 kPa): 678.31 ± 1.2 kg/m3
- mass density (320 K, 180000 kPa): 686.49 ± 1.3 kg/m3
- mass density (320 K, 200000 kPa): 694.12 ± 1.3 kg/m3
- mass density (340 K, 1000 kPa): 521.26 ± 0.94 kg/m3
- mass density (340 K, 2000 kPa): 524.21 ± 0.94 kg/m3
- mass density (340 K, 3000 kPa): 527.06 ± 0.95 kg/m3
- mass density (340 K, 5000 kPa): 532.46 ± 0.96 kg/m3
- mass density (340 K, 10000 kPa): 544.06 ± 0.98 kg/m3
- mass density (340 K, 20000 kPa): 561.99 ± 1 kg/m3
- mass density (340 K, 30000 kPa): 576.2 ± 1 kg/m3
- mass density (340 K, 40000 kPa): 588.27 ± 1.1 kg/m3
- mass density (340 K, 50000 kPa): 598.47 ± 1.1 kg/m3
- mass density (340 K, 60000 kPa): 607.64 ± 1.1 kg/m3
- mass density (340 K, 70000 kPa): 615.81 ± 1.1 kg/m3
- mass density (340 K, 80000 kPa): 623.32 ± 1.1 kg/m3
- mass density (340 K, 90000 kPa): 630.37 ± 1.1 kg/m3
- mass density (340 K, 100000 kPa): 636.58 ± 1.1 kg/m3
- mass density (340 K, 120000 kPa): 648.45 ± 2.9 kg/m3
- mass density (340 K, 140000 kPa): 658.64 ± 2.9 kg/m3
- mass density (340 K, 160000 kPa): 668.16 ± 3 kg/m3
- mass density (340 K, 180000 kPa): 676.9 ± 3 kg/m3
- mass density (340 K, 200000 kPa): 684.85 ± 3 kg/m3
- mass density (360 K, 2000 kPa): 494.28 ± 0.89 kg/m3
- mass density (360 K, 3000 kPa): 498.49 ± 0.9 kg/m3
- mass density (360 K, 5000 kPa): 505.91 ± 0.91 kg/m3
- mass density (360 K, 10000 kPa): 520.98 ± 0.94 kg/m3
- mass density (360 K, 20000 kPa): 542.91 ± 0.98 kg/m3
- mass density (360 K, 30000 kPa): 559.24 ± 1 kg/m3
- mass density (360 K, 40000 kPa): 572.58 ± 1 kg/m3
- mass density (360 K, 50000 kPa): 584.17 ± 1.1 kg/m3
- mass density (360 K, 60000 kPa): 593.9 ± 1.1 kg/m3
- mass density (360 K, 70000 kPa): 602.93 ± 1.1 kg/m3
- mass density (360 K, 80000 kPa): 610.9 ± 1.1 kg/m3
- mass density (360 K, 90000 kPa): 618.47 ± 1.1 kg/m3
- mass density (360 K, 100000 kPa): 625.39 ± 1.1 kg/m3
- mass density (360 K, 120000 kPa): 637.62 ± 1.2 kg/m3
- mass density (360 K, 140000 kPa): 648.76 ± 1.2 kg/m3
- mass density (360 K, 160000 kPa): 658.47 ± 1.2 kg/m3
- mass density (360 K, 180000 kPa): 667.68 ± 1.2 kg/m3
- mass density (360 K, 200000 kPa): 676.03 ± 1.3 kg/m3
- mass density (380 K, 2000 kPa): 456.63 ± 0.82 kg/m3
- mass density (380 K, 3000 kPa): 463.53 ± 0.83 kg/m3
- mass density (380 K, 5000 kPa): 474.94 ± 0.86 kg/m3
- mass density (380 K, 10000 kPa): 495.21 ± 0.89 kg/m3
- mass density (380 K, 20000 kPa): 522.42 ± 0.94 kg/m3
- mass density (380 K, 30000 kPa): 541.49 ± 0.98 kg/m3
- mass density (380 K, 40000 kPa): 556.53 ± 1 kg/m3
- mass density (380 K, 50000 kPa): 569.05 ± 1 kg/m3
- mass density (380 K, 60000 kPa): 580.01 ± 1.1 kg/m3
- mass density (380 K, 70000 kPa): 589.59 ± 1.1 kg/m3
- mass density (380 K, 80000 kPa): 598.34 ± 1.1 kg/m3
- mass density (380 K, 90000 kPa): 606.19 ± 1.1 kg/m3
- mass density (380 K, 100000 kPa): 613.44 ± 1.1 kg/m3
- mass density (380 K, 120000 kPa): 626.58 ± 1.1 kg/m3
- mass density (380 K, 140000 kPa): 638.25 ± 1.2 kg/m3
- mass density (380 K, 160000 kPa): 648.59 ± 1.2 kg/m3
- mass density (380 K, 180000 kPa): 658.14 ± 1.2 kg/m3
- mass density (380 K, 200000 kPa): 666.86 ± 1.2 kg/m3
